System: Phospholipidosis
Assay: Literature-mined public compounds from Kruhlak et al phospholipidosis modelling dataset

`CN(Cc1cc(Br)cc(Br)c1N)C1CCCCC1` [BROMHEXINE] was tested, and the Phospholipidosis was “Positive: weak inducer based on presence of foamy macrophages and cytoplasmic vacuolations”.
For `O=S(=O)(O)c1ccc(/N=N/c2cc(CO)c(O)c(/N=N/c3ccc(S(=O)(=O)O)c4ccccc34)c2O)c2ccccc12` [BROWN HT], the Phospholipidosis was “Negative: based on the absence of positive reported data from WMDD”.
In the case of `CC(C)(C)c1ccc(CN2CCN(C(c3ccccc3)c3ccc(Cl)cc3)CC2)cc1` (configuration not stated) [BUCLIZINE], the Phospholipidosis is reported as “Negative: based on the absence of positive reported data from WMDD”.
In the case of `O=C(O)CCC(=O)c1ccc(C2CCCCC2)c(Cl)c1` [BUCLOXIC ACID], the Phospholipidosis is reported as “Negative: based on the absence of positive reported data from WMDD”.
`CC(C)(C)NCC(O)COc1ccccc1C#N` (configuration not stated) [BUNITROLOL] was tested, and the Phospholipidosis was “Negative: based on the absence of positive reported data from WMDD”.
In the case of `Cc1ccc(Cl)c(OCC(O)CNC(C)(C)C)c1` (configuration not stated) [BUPRANOLOL], the Phospholipidosis is reported as “Negative: based on the absence of positive reported data from WMDD”.
In the case of `O=C1CC2(CCCC2)CC(=O)N1CCCCN1CCN(c2ncccn2)CC1` [BUSPIRONE], the Phospholipidosis is reported as “Negative: confirmed by electron microscopy”.
In the case of `CCCCN(CCCC)CCNc1nc(-c2ccccc2)no1` [BUTALAMINE], the Phospholipidosis is reported as “Negative: based on the absence of positive reported data from WMDD”.
For `C=CCC1(CC(C)C)C(=O)NC(=O)NC1=O` [BUTALBITAL], the Phospholipidosis was “Negative: based on the absence of positive reported data from WMDD”.
With `CCCC(=O)c1ccc2c(c1)N(CCCN1CCN(C)CC1)c1ccccc1S2` [BUTAPERAZINE] the Phospholipidosis was “Negative: based on the absence of positive reported data from WMDD”.
With `Oc1ccc2c(c1)[C@@]13CCCC[C@@]1(O)[C@@H](C2)N(CC1CCC1)CC3` [BUTORPHANOL] the Phospholipidosis was “Negative: based on the absence of positive reported data from WMDD”.
`Cn1c(=O)c2c(ncn2C)n(C)c1=O` [CAFFEINE] was tested, and the Phospholipidosis was “Negative: confirmed by electron microscopy”.
For `C=C1/C(=C\C=C2/CCC[C@]3(C)[C@@H]([C@H](C)CCCC(C)(C)O)CC[C@@H]23)C[C@@H](O)C[C@@H]1O` [CALCITRIOL], the Phospholipidosis was “Negative: based on the absence of positive reported data from WMDD”.
In the case of `NC(=O)N1c2ccccc2C=Cc2ccccc21` [CARBAMAZEPINE], the Phospholipidosis is reported as “Negative: confirmed by electron microscopy”.
With `CN1CC(O)C2=C/C(=N/NC(N)=O)C(=O)C=C21` (configuration not stated) [CARBAZOCHROME] the Phospholipidosis was “Negative: based on the absence of positive reported data from WMDD”.
`CN(C)CCOC(c1ccc(Cl)cc1)c1ccccn1` (configuration not stated) [CARBINOXAMINE] was tested, and the Phospholipidosis was “Negative: based on the absence of positive reported data from WMDD”.
For `N[C@@H](CSCC(=O)O)C(=O)O` [CARBOCYSTEINE], the Phospholipidosis was “Negative: based on the absence of positive reported data from WMDD”.
In the case of `CCC(Br)(CC)C(=O)NC(N)=O` [CARBROMAL], the Phospholipidosis is reported as “Negative: based on the absence of positive reported data from WMDD”.
`CCCCNC(=O)NS(=O)(=O)c1ccc(N)cc1` [CARBUTAMIDE] was tested, and the Phospholipidosis was “Negative: based on the absence of positive reported data from WMDD”.
In the case of `O=NN(CCCl)C(=O)NCCCl` [CARMUSTINE], the Phospholipidosis is reported as “Negative: based on the absence of positive reported data from WMDD”.
`C=CC1=C(C(=O)O)N2C(=O)[C@@H](NC(=O)/C(=N\OCC(=O)O)c3csc(N)n3)[C@H]2SC1` [CEFIXIME] was tested, and the Phospholipidosis was “Negative: based on the absence of positive reported data from WMDD”.
With `CO[C@@]1(NC(=O)C2SC(=C(C(N)=O)C(=O)O)S2)C(=O)N2C(C(=O)O)=C(CSc3nnnn3C)CS[C@@H]21` (some centres not stated) [CEFOTETAN] the Phospholipidosis was “Negative: based on the absence of positive reported data from WMDD”.
In the case of `NC(=O)c1cc[n+](CC2=C(C(=O)O)N3C(=O)[C@@H](NC(=O)[C@@H](c4ccccc4)S(=O)(=O)[O-])[C@H]3SC2)cc1` [CEFSULODIN], the Phospholipidosis is reported as “Negative: based on the absence of positive reported data from WMDD”.
In the case of `CC(C)(O/N=C(\C(=O)N[C@@H]1C(=O)N2C(C(=O)[O-])=C(C[n+]3ccccc3)CS[C@H]12)c1csc(N)n1)C(=O)O` [CEFTAZIDIME], the Phospholipidosis is reported as “Negative: based on the absence of positive reported data from WMDD”.
In the case of `O=C(Cn1cnnn1)N[C@@H]1C(=O)N2C(C(=O)O)=C(CSc3nncs3)CS[C@H]12` [CEFTEZOLE], the Phospholipidosis is reported as “Negative: based on the absence of positive reported data from WMDD”.
With `CO/N=C(\C(=O)N[C@@H]1C(=O)N2C(C(=O)O)=C(CSc3nc(=O)c(=O)[nH]n3C)CS[C@H]12)c1csc(N)n1` [CEFTRIAXONE] the Phospholipidosis was “Negative: based on the absence of positive reported data from WMDD”.
For `CC(=O)OCC1=C(C(=O)O)N2C(=O)[C@@H](NC(=O)[C@H](N)c3ccccc3)[C@H]2SC1` [CEPHALOGLYCIN], the Phospholipidosis was “Negative: based on the absence of positive reported data from WMDD”.
In the case of `O=C(N[C@H](CO)[C@H](O)c1ccc([N+](=O)[O-])cc1)C(Cl)Cl` [CHLORAMPHENICOL], the Phospholipidosis is reported as “Positive: weak inducer based on presence of foamy macrophages and cytoplasmic vacuolations”.
In the case of `CN1CCN(C(c2ccccc2)c2ccc(Cl)cc2)CC1` (configuration not stated) [CHLORCYCLIZINE], the Phospholipidosis is reported as “Positive: strong inducer confirmed by electron microscopy”.
With `CC(=O)O[C@]1(C(C)=O)CC[C@H]2[C@@H]3C=C(Cl)C4=CC(=O)CC[C@]4(C)[C@H]3CC[C@@]21C` [CHLORMADINONE ACETATE] the Phospholipidosis was “Negative: based on the absence of positive reported data from WMDD”.
`CC(=O)[C@@]1(O)CC[C@H]2[C@@H]3C=C(Cl)C4=CC(=O)CC[C@]4(C)[C@H]3CC[C@@]21C` [CHLORMADINONE] was tested, and the Phospholipidosis was “Negative: based on the absence of positive reported data from WMDD”.
For `CC(CCCN(CCCl)CCCl)Nc1ccnc2cc(Cl)ccc12` (configuration not stated) [CHLOROQUINE MUSTARD], the Phospholipidosis was “Positive: weak inducer based on presence of foamy macrophages and cytoplasmic vacuolations”.
In the case of `CCN(CC)CCCC(C)Nc1ccnc2cc(Cl)ccc12` (configuration not stated) [CHLOROQUINE], the Phospholipidosis is reported as “Positive: strong inducer confirmed by electron microscopy”.
`NS(=O)(=O)c1cc2c(cc1Cl)N=CNS2(=O)=O` [CHLOROTHIAZIDE] was tested, and the Phospholipidosis was “Negative: based on the absence of positive reported data from WMDD”.
In the case of `Oc1c(Cl)cc(Cl)c2cccnc12` [CHLOROXINE], the Phospholipidosis is reported as “Negative: based on the absence of positive reported data from WMDD”.
`CC(C)(N)Cc1ccc(Cl)cc1` [CHLORPHENTERMINE] was tested, and the Phospholipidosis was “Positive: strong inducer confirmed by electron microscopy”.
`CN(C)CCCN1c2ccccc2Sc2ccc(Cl)cc21` [CHLORPROMAZINE] was tested, and the Phospholipidosis was “Positive: strong inducer confirmed by electron microscopy”.
For `CCCNC(=O)NS(=O)(=O)c1ccc(Cl)cc1` [CHLORPROPAMIDE], the Phospholipidosis was “Negative: based on the absence of positive reported data from WMDD”.
With `CN(C)[C@@H]1C(O)=C(C(N)=O)C(=O)[C@@]2(O)C(O)=C3C(=O)c4c(O)ccc(Cl)c4[C@@](C)(O)[C@H]3C[C@@H]12` [CHLORTETRACYCLINE] the Phospholipidosis was “Negative: confirmed by electron microscopy”.
`CN/C(=N/CCSCc1nc[nH]c1C)NC#N` [CIMETIDINE] was tested, and the Phospholipidosis was “Negative: confirmed by electron microscopy”.
`CC(C)(Oc1ccc(C2CC2(Cl)Cl)cc1)C(=O)O` (configuration not stated) [CIPROFIBRATE] was tested, and the Phospholipidosis was “Negative: confirmed by electron microscopy”.
`CN(C)CCCC1(c2ccc(F)cc2)OCc2cc(C#N)ccc21` (configuration not stated) [CITALOPRAM] was tested, and the Phospholipidosis was “Positive: strong inducer confirmed by electron microscopy”.
